Source: patent publication US8741930B2 (Bridge Pharma, Inc., priority 2008, dated 2014)
pIC50: −log10 of the molar value. Where two headings read alike, the source gives them in different places.

How the values were obtained:
[1] = test system: histamine wheal response; experiment: Antihistaminic activity in vivo: histamine-induced wheal after oral dosing; design: species or system rats
Protocol: Male rats (150-200 g) were starved overnight and twelve hours after dorsal depilation, the animals were orally pretreated with the test compound(s). Four dorsal test areas were marked with permanent ink, carefully avoiding the area closest to the spine. Exactly 60 min after the dosing of the test compound, two intradermal injections of histamine (50 microliter; 1.0 mg/ml of histamine di-HCl) were performed, one on each side on the back of the animal. Two intradermal injections of the vehicle for the histamine solution were also performed. Evans blue dye (20 mg/kg) was injected iv 1 minute prior to the intra-dermal injections of histamine and the histamine vehicle. Twenty minutes were allowed for the wheal response to fully develop, whereupon the animals were euthanized and the dorsal skin containing the intradermal wheals were deflected. The blue spotted areas were measured in square millimeters and the duplicate vehicle wheal responses were averaged. In vehicle-treated animals, the wheal area, on average, was increased by histamine by 98 mm^2. The inhibition was calculated in percent difference from this baseline value.

[2] = test system: tear flow; experiment: Tear flow, phenol red thread (modified Schirmer's test) after ocular instillation; format: in vivo, mice; details: for Effect on tear flow: topical administration to the eyes of laboratory animals; for Tear flow, length of red area of thread, Mean ± SEM: 0.07% solution, 0.05 mL twice daily, 45 min after 5th instillation, N=8
Protocol: All instillations were performed twice daily and consisted of 0.05 mL. A total of five instillations were administered. Tear measurements were performed 45 minutes after the first drug instillation on Day 3, by carefully placing the bent end of a Zone-Quick phenol red impregnated cotton thread (FCI Ophthalmics, Pembrooke, Mass.) at the intercanthus of the eye and holding it in place for 30 seconds. After removal, the length of the red area of the thread was measured in millimeters. During tear measurements, all animals were lightly anesthetized with isoflurane in order to reduce movement and stress.

[3] = Maximal solubility; format: physicochemical
Source text: Ocular formulations of norketotifen to be used by individuals suffering from a dry eye syndrome may be hypotonic or isotonic. Thus, the acceptable osmolality may range from about 150 mOsm to about 350 mOsm.

[4] = test system: tear flow; details: U.S. Pat. No. 7,247,623; cited from earlier work
[5] = target: muscarinic receptors (antimuscarinic activity); details: Wolff et al. 2007; cited from earlier work

For `O=C1Cc2ccccc2C(=C2CCNCC2)c2ccsc21` (racemic) [Norketotifen], the inhibition at 1 mg/kg ([1]; Rattus norvegicus, 1 mg/kg oral, versus vehicle histamine effect) was 6%, the inhibition at 10 mg/kg ([1]; Rattus norvegicus, 10 mg/kg oral, versus vehicle histamine effect) was 83% and the “Absorption after oral administration” value ([1]; rats, oral) was “well absorbed”. For the same molecule, the “Statistical significance of effect in modified Schirmer's test” value ([2]; 45 minutes after the 5th treatment) was “statistically significant effects” and the “Effect on tear flow” value [2] was “increase tear flow”.
With `CN1CCC(=C2c3ccccc3CC(=O)c3sccc32)CC1.O=C(O)/C=C/C(=O)O` [KETOTIFEN HF, reference compound] the “Tear flow, length of red area of thread, Mean ± SEM” value [2] was 4.25 ± 0.250 mm.
For `CN1CCC(=C2c3ccccc3CC(=O)c3sccc32)CC1` [Ketotifen, reference compound], the “Effect on tear flow” value [2] was “not to increase tear flow”.
For `O=C(O)/C=C/C(=O)O.O=C1Cc2ccccc2C(=C2CCNCC2)c2ccsc21` [norketotifen hydrogen fumarate], the “Tear flow, length of red area of thread, Mean ± SEM” value [2] was 4.62 ± 0.263 mm, the Maximal solubility ([3]; in saline) was 4.5 mg/mL and the Maximal solubility ([3]; in water) was 2.7 mg/mL.
For `CN(C)CC/C=C1/c2ccccc2COc2ccc(CC(=O)O)cc21` [olopatadine], the “Effect on tear flow” value [4] is given as “reduce tear flow” and the pIC50 [5] is given as 5.76.
